Measured values: publication PMC8803738, “Impact of the mouse model and molar amount of injected ligand on the tissue distribution profile of PSMA radioligands” (European Journal of Nuclear Medicine and Molecular Imaging, 2021)

System: LNCaP tumor-bearing mice
Assay: Biodistribution in LNCaP tumor-bearing mice
Details: for AUCTu(0→48 h)-to-AUCKi(0→48 h) ratio: LNCaP model (male mice); for AUCTu(0→48 h)-to-AUCKi(0→48 h) ratio / AUC0→48h, Kidneys / AUC0→48h, LNCaP tumor: average ± SE, non-decay-corrected
[1] = LNCaP model, 4 h p.i., 0.05 nmol
[2] = LNCaP model, 4 h p.i., 1.0 nmol
[3] = LNCaP model, 24 h p.i., 0.05 nmol
[4] = LNCaP model, 24 h p.i., 1.0 nmol
[5] = LNCaP model, 48 h p.i., 0.05 nmol
[6] = LNCaP model, 48 h p.i., 1.0 nmol

SMILES: CC(C)Cc1ccc(C(C)C(=O)NC(CCN)C(=O)NCCCCC(NC(=O)CN2CCN(CC(=O)O)CCN(CC(=O)O)CCN(CC(=O)O)CC2)C(=O)NCC2CCC(C(=O)NC(Cc3ccc4ccccc4c3)C(=O)NCCCCC(NC(=O)NC(CCC(=O)O)C(=O)O)C(=O)O)CC2)cc1 (centres unmarked) [[^177Lu]Lu-Ibu-DAB-PSMA, metal not drawn]
- AUCTu(0→48 h)-to-AUCKi(0→48 h) ratio (0.05 nmol): 0.89 ± 0.25
- AUCTu(0→48 h)-to-AUCKi(0→48 h) ratio (1.0 nmol): 1.2 ± 0.2
- AUC0→48h, Kidneys (LNCaP model, 0.05 nmol): 815 ± 103 % IA/g*h
- AUC0→48h, LNCaP tumor (LNCaP model, 0.05 nmol): 721 ± 115 % IA/g*h
- Increase of tumor-to-kidney AUC0→48 h ratio for high vs low molar amount of injected ligand (LNCaP model, 1.0 nmol vs 0.05 nmol): 1.3 fold
- AUC0→48h, Kidneys (LNCaP model, 1.0 nmol): 349 ± 21 % IA/g*h
- AUC0→48h, LNCaP tumor (LNCaP model, 1.0 nmol): 402 ± 38 % IA/g*h
- Tissue distribution, Blood [1]: 1.6 ± 0.3 % IA/g
- Tissue distribution, Bone [1]: 0.63 ± 0.33 % IA/g
- Tissue distribution, Heart [1]: 0.61 ± 0.13 % IA/g
- Tissue distribution, Intestines [1]: 0.33 ± 0.03 % IA/g
- Tissue distribution, Kidneys [1]: 58 ± 10 % IA/g
- Tissue distribution, LNCaP tumor [1]: 18 ± 3 % IA/g
- Tissue distribution, Liver [1]: 1.3 ± 0.1 % IA/g
- Tissue distribution, Lung [1]: 1.4 ± 0.2 % IA/g
- Tissue distribution, Muscle [1]: 1.5 ± 1.9 % IA/g
- Tissue distribution, Salivary glands [1]: 0.59 ± 0.14 % IA/g
- Tissue distribution, Spleen [1]: 1.5 ± 0.4 % IA/g
- Tissue distribution, Stomach [1]: 0.32 ± 0.06 % IA/g
- Tumor-to-blood ratio [1]: 12 ± 1
- Tumor-to-kidney ratio [1]: 0.32 ± 0.03
- Tumor-to-liver ratio [1]: 14 ± 1
- Tissue distribution, Blood [2]: 0.87 ± 0.29 % IA/g
- Tissue distribution, Bone [2]: 0.39 ± 0.17 % IA/g
- Tissue distribution, Heart [2]: 0.41 ± 0.11 % IA/g
- Tissue distribution, Intestines [2]: 0.23 ± 0.05 % IA/g
- Tissue distribution, Kidneys [2]: 16 ± 1 % IA/g
- Tissue distribution, LNCaP tumor [2]: 12 ± 2 % IA/g
- Tissue distribution, Liver [2]: 0.82 ± 0.09 % IA/g
- Tissue distribution, Lung [2]: 0.78 ± 0.19 % IA/g
- Tissue distribution, Muscle [2]: 0.22 ± 0.14 % IA/g
- Tissue distribution, Salivary glands [2]: 0.38 ± 0.08 % IA/g
- Tissue distribution, Spleen [2]: 0.45 ± 0.08 % IA/g
- Tissue distribution, Stomach [2]: 0.22 ± 0.06 % IA/g
- Tumor-to-blood ratio [2]: 15 ± 5
- Tumor-to-kidney ratio [2]: 0.71 ± 0.10
- Tumor-to-liver ratio [2]: 14 ± 1
- Tissue distribution, Blood [3]: 0.16 ± 0.03 % IA/g
- Tissue distribution, Bone [3]: < 0.10 % IA/g
- Tissue distribution, Heart [3]: 0.11 ± 0.02 % IA/g
- Tissue distribution, Intestines [3]: 0.10 ± 0.01 % IA/g
- Tissue distribution, Kidneys [3]: 5.9 ± 1.5 % IA/g
- Tissue distribution, LNCaP tumor [3]: 18 ± 7 % IA/g
- Tissue distribution, Liver [3]: 0.48 ± 0.08 % IA/g
- Tissue distribution, Lung [3]: 0.24 ± 0.03 % IA/g
- Tissue distribution, Muscle [3]: < 0.10 % IA/g
- Tissue distribution, Salivary glands [3]: 0.18 ± 0.03 % IA/g
- Tissue distribution, Spleen [3]: 0.35 ± 0.06 % IA/g
- Tissue distribution, Stomach [3]: 0.13 ± 0.04 % IA/g
- Tumor-to-blood ratio [3]: 116 ± 37
- Tumor-to-kidney ratio [3]: 3.2 ± 1.1
- Tumor-to-liver ratio [3]: 39 ± 13
- Tissue distribution, Blood [4]: 0.19 ± 0.03 % IA/g
- Tissue distribution, Bone [4]: 0.14 ± 0.03 % IA/g
- Tissue distribution, Heart [4]: 0.12 ± 0.02 % IA/g
- Tissue distribution, Intestines [4]: 0.12 ± 0.03 % IA/g
- Tissue distribution, Kidneys [4]: 6.8 ± 1.1 % IA/g
- Tissue distribution, LNCaP tumor [4]: 8.8 ± 2.2 % IA/g
- Tissue distribution, Liver [4]: 0.45 ± 0.07 % IA/g
- Tissue distribution, Lung [4]: 0.23 ± 0.03 % IA/g
- Tissue distribution, Muscle [4]: < 0.10 % IA/g
- Tissue distribution, Salivary glands [4]: 0.16 ± 0.02 % IA/g
- Tissue distribution, Spleen [4]: 0.21 ± 0.06 % IA/g
- Tissue distribution, Stomach [4]: 0.23 ± 0.10 % IA/g
- Tumor-to-blood ratio [4]: 46 ± 12
- Tumor-to-kidney ratio [4]: 1.3 ± 0.2
- Tumor-to-liver ratio [4]: 20 ± 3
- Tissue distribution, Blood [5]: 0.10 ± 0.02 % IA/g
- Tissue distribution, Bone [5]: < 0.10 % IA/g
- Tissue distribution, Heart [5]: < 0.10 % IA/g
- Tissue distribution, Intestines [5]: < 0.10 % IA/g
- Tissue distribution, Kidneys [5]: 2.0 ± 0.3 % IA/g
- Tissue distribution, LNCaP tumor [5]: 16 ± 5 % IA/g
- Tissue distribution, Liver [5]: 0.50 ± 0.10 % IA/g
- Tissue distribution, Lung [5]: 0.16 ± 0.04 % IA/g
- Tissue distribution, Muscle [5]: < 0.10 % IA/g
- Tissue distribution, Salivary glands [5]: 0.11 ± 0.01 % IA/g
- Tissue distribution, Spleen [5]: 0.31 ± 0.08 % IA/g
- Tissue distribution, Stomach [5]: < 0.10 % IA/g
- Tumor-to-blood ratio [5]: 155 ± 31
- Tumor-to-kidney ratio [5]: 7.7 ± 1.7
- Tumor-to-liver ratio [5]: 32 ± 7
- Tissue distribution, Blood [6]: 0.09 ± 0.02 % IA/g
- Tissue distribution, Bone [6]: < 0.10 % IA/g
- Tissue distribution, Heart [6]: < 0.10 % IA/g
- Tissue distribution, Intestines [6]: < 0.10 % IA/g
- Tissue distribution, Kidneys [6]: 2.4 ± 0.5 % IA/g
- Tissue distribution, LNCaP tumor [6]: 9.5 ± 1.1 % IA/g
- Tissue distribution, Liver [6]: 0.57 ± 0.09 % IA/g
- Tissue distribution, Lung [6]: 0.14 ± 0.03 % IA/g
- Tissue distribution, Muscle [6]: < 0.10 % IA/g
- Tissue distribution, Salivary glands [6]: < 0.10 % IA/g
- Tissue distribution, Spleen [6]: 0.24 ± 0.04 % IA/g
- Tissue distribution, Stomach [6]: < 0.10 % IA/g
- Tumor-to-blood ratio [6]: 105 ± 14
- Tumor-to-kidney ratio [6]: 4.2 ± 0.7
- Tumor-to-liver ratio [6]: 17 ± 2
- Tissue distribution, Blood (LNCaP model, 48 h p.i., 1.0 nmol, listed as [177Lu]Lu-Ibu-DAB-PSMA): < 0.10 % IA/g
